# Test results taken from US20120252853A1, “Positive allosteric modulators of nicotinic acetylcholine receptor” (H. Lundbeck A/S, priority 2011, published 2012).
# How the values were obtained:
# human KCNQ2 = biological target: T1, human KCNQ2 (Homo sapiens, UniProt O43526); assay: 86Rb flux in KCNQ2 expressing cells; assay type: cell-based; conditions: KCNQ2 opening; for EC50: 86Rb efflux, CHO-K1 cells stably transfected with human KCNQ2; for Emax: Max effect determined in % of the effect of 30 mM KCl
# T1 construct: expressed in transfected cells
# Description: Chinese hamster ovary cells (CHO-K1) were stably transfected with human KCNQ2 inserted into the pCl-neo vector (Promega). Cells were plated at 2×10^5 cells/ml in 96-well plates in 100 μl media (MEM Alpha media, 10% FBS, 1% P/S, 1% L-Glu, and 1 mg/ml G418). At the time of plating the cells were furthermore loaded with 1 μCi/ml 86Rb over-night. On the subsequent day, the cells were washed with 3×50 μl assay buffer (HBSS+10 mM HEPES, pH 7.4) and incubated in 50 μl buffer with retigabine for 30 minutes at 37° C. Following this preincubation, the cell membrane was depolarized for 30 minutes at 37° C. with 15 mM KCl (final concentration) in assay buffer supplemented with the appropriate amount of compound to maintain drug concentration. The supernatant was removed and placed in pony-vials with 0.5 ml scintillation liquid and counted. The dose-dependent effect of the investigated compounds on the efflux of 86Rb through the hKCNQ2 channels were calculated according to the four parameter logistic equation: Y=Bottom+(Top-Bottom)/(1+10̂((LogEC50-X)*HillSlope)), where X is the logarithm of concentration, Y is the response, and HillSlope is the hill coefficient.
# A representative selection of compounds of the invention were tested in the assay in addition to 6 comparative examples wherein 0 has been substituted with a 6-membered ring comprising up to two N atoms. Comparative 1-4 has been disclosed in WO 2009/127678 or WO 2009/127679 and comparative 5-6 are close analogues.
# human α7 receptor = human α7 receptor (Homo sapiens, UniProt P36544); assay: α7 NNR flux assay (FDSS Ca assay); assay type: cell-based; conditions: positive allosteric modulation; rat GH4C1 cell line stably expressing human α7; acetylcholine 20 μM; % modulation relative to PNU-120596 set to 100%
# Summary of the method: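 GH4C1 rat cells stably expressing human α7, loaded with Calcium-4 dye plus 2.5 mM probenecid in HBSS/20 mM HEPES pH 7.4, 3 mM CaCl2. Compounds (0.039–20 μM final) preincubated ~95 s before 20 μM acetylcholine (~EC100); Ex480/Em540 fluorescence on FDSS. Values are % modulation, with 3 μM PNU-120596 set to 100%.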
# Chain of human α7 receptor (P36544 23-502): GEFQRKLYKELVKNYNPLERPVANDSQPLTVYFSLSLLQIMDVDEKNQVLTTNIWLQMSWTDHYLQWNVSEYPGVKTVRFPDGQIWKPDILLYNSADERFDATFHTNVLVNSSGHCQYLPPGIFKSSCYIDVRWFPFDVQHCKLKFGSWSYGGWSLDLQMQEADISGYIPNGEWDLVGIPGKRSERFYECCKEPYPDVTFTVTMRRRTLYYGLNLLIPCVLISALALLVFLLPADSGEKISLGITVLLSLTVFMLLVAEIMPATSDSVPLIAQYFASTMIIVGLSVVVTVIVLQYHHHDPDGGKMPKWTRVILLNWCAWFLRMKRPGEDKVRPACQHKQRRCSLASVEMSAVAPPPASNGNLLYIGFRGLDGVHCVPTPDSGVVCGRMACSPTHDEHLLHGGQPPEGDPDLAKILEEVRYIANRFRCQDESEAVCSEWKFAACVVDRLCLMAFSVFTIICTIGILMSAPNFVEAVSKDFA
SMILES,EC50 (human KCNQ2) [µM],Emax (human KCNQ2) [%],EC50 (human α7 receptor) [µM]
"Cc1cc2cc(CNC(=O)c3cnn(C)c3)ccc2[nH]1 [Compound 29, 1-methyl-N-[(2-methyl-1H-indol-5-yl)methyl]pyrazole-4-carboxamide]",> 50,4,9.25
"Cn1cc(C(=O)NCc2ccc3[nH]c(C(F)(F)F)cc3c2)cn1 [Compound 30, 1-methyl-N-[[2-(trifluoromethyl)-1H-indol-5-yl]methyl]pyrazole-4-carboxamide]",> 50,9.6,5.8
"O=C(NCc1ccc2[nH]c(C(F)(F)F)cc2c1)c1ccno1 [Compound 31, N-[[2-(trifluoromethyl)-1H-indol-5-yl]methyl]isoxazole-5-carboxamide]",> 50,4.8,–
"Cc1cc(C(=O)NCc2ccc3[nH]c(C(F)(F)F)cc3c2)on1 [Compound 65, 3-methyl-N-[[2-(trifluromethyl)-1H-indol-5-yl]methyl]isoxazole-5-carboxamide]",–,8.1,5
"Cc1ncc(C(=O)NCc2ccc3[nH]c(C(F)(F)F)cc3c2)s1 [Compound 66, 2-methyl-N-[[2-(trifluoromethyl)-1H-indol-5-yl]methyl]thiazole-5-carboxamide]",> 50,3.7,8.8
"CC(C)c1cc(C(=O)NCc2ccc3[nH]c(C(F)(F)F)cc3c2)on1 [Compound 67, 3-isopropyl-N-[[2-(trifluoromethyl)-1H-indol-5-yl]methyl]isoxazole-5-carboxamide]",> 50,5.3,6.1
"COCc1cc(C(=O)NCc2ccc3[nH]c(C(F)(F)F)cc3c2)on1 [Compound 114, 3-(methoxymethyl)-N-[[2-(trifluoromethyl)-1H-indol-5-yl]methyl]isoxazole-5-carboxamide]",–,–,5
"O=C(NCc1ccc2[nH]ccc2c1)c1cc(CCF)no1 [Compound 115, 3-(2-fluoroethyl)-N-(1H-indol-5-ylmethyl)isoxazole-5-carboxamide]",–,–,4.3
"Cc1cc2cc(CNC(=O)c3ncc(C)o3)ccc2[nH]1 [Compound 116, 5-methyl-N-[(2-methyl-1H-indol-5-yl)methyl]oxazole-2-carboxamide]",–,–,9.9
"Cc1cc2cc(CNC(=O)c3cnn4c3CCC4)ccc2[nH]1 [Compound 117, N-[(2-methyl-1H-indol-5-yl)methyl]-5,6-dihydro-4H-pyrrolo[1,2-b]pyrazole-3-carboxamide]",–,–,7
"Cc1cc2cc(CNC(=O)c3cc4n(n3)CCC4)ccc2[nH]1 [Compound 118, N-[(2-methyl-1H-indol-5-yl)methyl]-5,5-dihydro-4H-pyrrolo[1,2-b]pyrazole-2-carboxamide]",–,–,7.2
"Cc1noc(C(=O)NCc2ccc3[nH]c(C)cc3c2)n1 [Compound 119, 3-methyl-N-[(2-methyl-1H-indol-5-yl)methyl]-1,2,4-oxadiazole-5-carboxamide]",–,–,7.1
"Cc1cc(C(=O)N[C@H](C)c2ccc3[nH]c(C#N)cc3c2)on1 [Compound 121, N-[(1R)-1-(2-cyano-1H-indol-5-yl)ethyl]-3-methyl-isoxazole-5-carboxamide]",–,–,4.8
"O=C(NCc1ccc2[nH]c(C(F)(F)F)cc2c1)c1ncc(C(F)(F)F)cn1 [Compound C1, 5-Trifluoromethyl-pyrimidine-2-carboxylic acid (2-trifluoromethyl-1H-indol-5-ylmethyl)amide, reference compound]",> 50,34,–
"O=C(NCc1ccc2[nH]c(C(F)(F)F)cc2c1)c1ccc(-c2ccccc2)nc1 [Compound C2, 6-Phenyl-N-(2-trifluoromethyl-1H-indol-5-ylmethyl)-nicotinamide, reference compound]",> 50,31,–
"O=C(NCc1ccc2[nH]c(C(F)(F)F)cc2c1)c1ccc(C(F)(F)F)nc1 [Compound C3, 6-Trifluoromethyl-N-(2-trifluoromethyl-1H-indol-5-ylmethyl)-nicotinamide, reference compound]",17,46,–
"N#Cc1ccc(C(=O)NCc2ccc3[nH]c(C(F)(F)F)cc3c2)cn1 [Compound C4, 6-Cyano-N-(2-trifluoromethyl-1H-indol-5-ylmethyl)-nicotinamide, reference compound]",> 50,15,–
"COc1ccc(C(=O)NCc2ccc3[nH]c(C)cc3c2)cc1 [Compound C5, 4-Methoxy-N-(2-methyl-1H-indol-5-ylmethyl)-benzamide, reference compound]",> 50,17,–
"Cc1cc2cc(CNC(=O)c3ccccc3F)ccc2n1C [Compound C6, N-(1,2-Dimethyl-1H-indol-5-ylmethyl)-2-fluoro-benzamide, reference compound]",> 50,13,–

# More lines, now with the values ahead:
EC50 (human KCNQ2) [µM],Emax (human KCNQ2) [%],EC50 (human α7 receptor) [µM],SMILES
> 50,5.4,4.2,"Cc1cc(C(=O)NC(C)c2ccc3[nH]c(C(F)(F)F)cc3c2)on1 (single isomer, unassigned) [Compound 96, 3-methyl-N-[1-[2-(trifluoromethyl)-1H-indol-5-yl]ethyl]isoxazole-5-carboxamide]"
> 50,2,2.7,"Cc1cc2cc(CNC(=O)c3occc3C)ccc2[nH]1 [Compound 1, 3-methyl-N-[(2-methyl-1H-indol-5-yl)methyl]furan-2-carboxamide]"
> 50,5,0.34,"Cc1cc2cc(CNC(=O)c3ccc(C)s3)ccc2[nH]1 [Compound 24, 5-methyl-N-[(2-methyl-1H-indol-5-yl)methyl]thiophene-2-carboxamide]"
–,5.7,2.97,"Cc1cc(C(=O)NCc2ccc3[nH]c(C)cc3c2)on1 [Compound 28, 3-methyl-N-[(2-methyl-1H-indol-5-yl)methyl]isoxazole-5-carboxamide]"
–,7.5,2.45,"Cc1cc2cc(CNC(=O)c3cnc(C)s3)ccc2[nH]1 [Compound 35, 2-methyl-N-[(2-methyl-1H-indol-5-yl)methyl]thiazole-5-carboxamide]"
–,3.3,1.49,"Cc1cc2cc(CNC(=O)c3cnn(CC(F)(F)F)c3)ccc2[nH]1 [Compound 36, N-[(2-methyl-1H-indol-5-yl)methyl]-1-(2,2,2-trifluoroethyl)pyrazole-4-carboxamide]"
> 50,2.4,3.5,"O=C(NCc1ccc2[nH]c(C(F)(F)F)cc2c1)c1cnn(CC(F)(F)F)c1 [Compound 40, 1-(2,2,2-trifluoroethyl)-N-[[2-(trifluoromethyl)-1H-indol-5-yl]methyl]pyrazole-4-carboxamide]"
–,-5,2.33,"Cc1cc(C(=O)N[C@H](C)c2ccc3[nH]c(C)cc3c2)on1 [Compound 61, 3-methyl-N-[(1R)-1-(2-methyl-1H-indol-5-yl)ethyl]isoxazole-5-carboxamide]"
–,–,3.3,"Cc1cc(C(=O)NCc2ccc3[nH]c(C#N)cc3c2)sn1 [Compound 120, N-[(2-cyano-1H-indol-5-yl)-methyl]-3-methyl-isothiazole-5-carboxamide]"
